# According to patent publication US20160207930A1 (LEO PHARMA A/S, priority 2013, published 2016):
# How the values were obtained:
# [1] = Hepatic intrinsic clearance following incubation in human liver microsomes; type: in vitro ADME; details: 0.5 μM test compound, NADPH, 0-30 min, scaled to g liver
# Procedure, shortened: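 Compound incubated at 37° C with microsomes diluted to 0.55 mg/mL protein in 50 mM potassium phosphate pH 7.4 plus NADPH regenerating system; sampled 0–30 min and analysed by LC-MS/MS. Clint from ln(% parent remaining) slope, scaled to mL/min/g liver; Eh derived assuming 25.7 g/kg liver, 20.7 mL/min/kg blood flow.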
# [2] = target: T1, NK1 Receptor (Homo sapiens, UniProt P25103); experiment: NK1 receptor mediated intracellular [Ca2+] mobilization in U251 MG cells using FLIPR; type: cell-based; details: antagonism of Substance P (EC80), Fluo-4, read-out: NK1R mediated intracellular [Ca^2+] mobilization IC 50
# T1 construct: Measurement of NK1 Receptor Mediated Intracellular [Ca^2+]; Mobilization in U251 MG Cells Using FLIPR; endogenous in cells; host or cells: U251 MG cells
# Procedure, shortened: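 Fluo-4-loaded U251 MG cells preincubated with compound (0.5% DMSO final), checked 5 min for agonism, then 10 min at 37 °C before Substance P at EC80. Peak fluorescence change on FLIPR, normalized to 100 nM Aprepitant maximal response; IC50 by four-parameter logistic fit, reported as pIC50.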
# T1 sequence (P25103 whole entry): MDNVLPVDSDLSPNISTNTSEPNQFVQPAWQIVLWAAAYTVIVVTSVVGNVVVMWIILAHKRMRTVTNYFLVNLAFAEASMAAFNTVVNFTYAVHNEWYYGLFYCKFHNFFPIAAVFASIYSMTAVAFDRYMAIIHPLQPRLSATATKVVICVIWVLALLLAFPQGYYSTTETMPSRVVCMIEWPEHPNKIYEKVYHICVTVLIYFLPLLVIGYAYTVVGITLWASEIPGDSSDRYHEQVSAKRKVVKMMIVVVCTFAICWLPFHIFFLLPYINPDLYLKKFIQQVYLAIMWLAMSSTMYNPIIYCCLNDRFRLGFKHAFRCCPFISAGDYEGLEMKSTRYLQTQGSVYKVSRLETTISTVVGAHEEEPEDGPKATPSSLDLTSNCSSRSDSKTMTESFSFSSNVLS
Compound,Human in vitro Clint [1] [mL/min/g],IC50 [2] [nM]
"Cc1csc([C@H]2[C@@H]3CCC(=O)N3CCN2C(=O)N(C)[C@H](C)c2cc(C(F)(F)F)cc(C(F)(F)F)c2)c1C [Compound 75, (1R,8aS)—N—((R)-1-(3,5-bis(trifluoromethyl)phenyl)ethyl)-1-(3,4-dimethylthiophen-2-yl)-N-methyl-6-oxohexahydropyrrolo[1,2-a]pyrazine-2(1H)-carboxamide]",>200,0.34
"CCc1cc([C@@H](C)N(C)C(=O)N2CCN3C(=O)CC[C@H]3[C@@H]2c2scc(C)c2C)cc(C(F)(F)F)c1 [Compound 76, (1R,8aS)-1-(3,4-dimethylthiophen-2-yl)-N—((R)-1-(3-ethyl-5-(trifluoromethyl)phenyl)ethyl)-N-methyl-6-oxohexahydropyrrolo[1,2-a]pyrazine-2(1H)-carboxamide]",>200,0.26
"COc1cccc([C@H]2[C@@H]3CCC(=O)N3CCN2C(=O)N(C)[C@H](C)c2cc(C(C)C)cc(C(F)(F)F)c2)c1C [Compound 78, (1S,8aS)—N—((R)-1-(3-isopropyl-5-(trifluoromethyl)phenyl)ethyl)-1-(3-methoxy-2-methylphenyl)-N-methyl-6-oxohexahydropyrrolo[1,2-a]pyrazine-2(1H)-carboxamide]",>200,1.86
"C[C@H](c1cc(C(F)(F)F)cc(C(F)(F)F)c1)N(C)C(=O)N1CCN2C(=O)CC[C@H]2[C@@H]1c1cccc2c1CCC2 [Compound 79, (1S,8aS)—N—((R)-1-(3,5-bis(trifluoromethyl)phenyl)ethyl)-1-(2,3-dihydro-1H-inden-4-yl)-N-methyl-6-oxohexahydropyrrolo[1,2-a]pyrazine-2(1H)-carboxamide]",>200,2.57
"CCc1cc([C@@H](C)N(C)C(=O)N2CCN3C(=O)CC[C@H]3[C@@H]2c2cccc3c2CCC3)cc(C(F)(F)F)c1 [Compound 80, (1S,8aS)-1-(2,3-dihydro-1H-inden-4-yl)-N—((R)-1-(3-ethyl-5-(trifluoromethyl)phenyl)ethyl)-N-methyl-6-oxohexahydropyrrolo[1,2-a]pyrazine-2(1H)-carboxamide]",>200,0.79
"CC(C)c1cc([C@@H](C)N(C)C(=O)N2CCN3C(=O)CC[C@H]3[C@@H]2c2cccc3c2CCC3)cc(C(F)(F)F)c1 [Compound 81, (1S,8aS)-1-(2,3-dihydro-1H-inden-4-yl)-N—((R)-1-(3-isopropyl-5-(trifluoromethyl)phenyl)ethyl)-N-methyl-6-oxohexahydropyrrolo[1,2-a]pyrazine-2(1H)-carboxamide]",>200,3.5
"C[C@H](c1cc(C(F)(F)F)cc(C(F)(F)F)c1)N(C)C(=O)N1CCN2C(=O)CC[C@H]2[C@@H]1c1ccc(F)cc1 [Compound 85, (1S,8aS)—N—((R)-1-(3,5-bis(trifluoromethyl)phenyl)ethyl)-1-(4-fluorophenyl)-N-methyl-6-oxohexahydropyrrolo[1,2-a]pyrazine-2(1H)-carboxamide]",>200,100

# Second part, the compound after the results:
Human in vitro Clint [1] [mL/min/g],IC50 [2] [nM],Compound
>200,0.11,"C[C@H](c1cc(C(F)(F)F)cc(C(F)(F)F)c1)N(C)C(=O)N1CCN2C(=O)CC[C@H]2[C@@H]1c1ccccc1CO [Compound 74, (1S,8aS)—N—((R)-1-(3,5-bis(trifluoromethyl)phenyl)ethyl)-1-(2-(hydroxymethyl)phenyl)-N-methyl-6-oxohexahydropyrrolo[1,2-a]pyrazine-2(1H)-carboxamide]"
>200,0.52,"COc1cccc([C@H]2[C@@H]3CCC(=O)N3CCN2C(=O)N(C)[C@H](C)c2cc(C(F)(F)F)cc(C(F)(F)F)c2)c1C [Compound 77, (1S,8aS)—N—((R)-1-(3,5-bis(trifluoromethyl)phenyl)ethyl)-1-(3-methoxy-2-methylphenyl)-N-methyl-6-oxohexahydropyrrolo[1,2-a]pyrazine-2(1H)-carboxamide]"
>200,0.13,"Cc1cccc(F)c1[C@H]1[C@@H]2CCC(=O)N2CCN1C(=O)N(C)[C@H](C)c1cc(C(F)(F)F)cc(C(F)(F)F)c1 [Compound 82, (1S,8aS)—N—((R)-1-(3,5-bis(trifluoromethyl)phenyl)ethyl)-1-(2-fluoro-6-methylphenyl)-N-methyl-6-oxohexahydropyrrolo[1,2-a]pyrazine-2(1H)-carboxamide]"
